Experimental data from patent publication US20160038498A1, “METHODS FOR THE TREATMENT OF CANCER” (The Translational Genomics Research Institute, priority 2013, published 2016).

Key:
[1] = system: SW-13 cells; assay: Caspase 3/7 Glo assay for apoptosis; format: cell-based; details: for induction of apoptosis (caspase 3/7 activity), single compound: SW-13 (mutant p53), 8, 16, 24 and 48 hours
Description: (§1) ACC cell lines were plated and 24 hours later, 0.5 μM, 1 μM, 2.5 μM, and 5 μM of doxorubicin was added to the cultures. […] Data was normalized to cells alone, then to vehicle alone and expressed as a percentage of vehicle alone. […] H295R cells were plated at a density of 1750 cells/well in 40 μl of medium and SW-13 was plated at 1250 cells/wells in 40 μl DMEM with 2% FBS. […] Percent caspase 3/7 activity was normalized to cells and to DMSO control. […] […] Doxorubicin (Tocris, Minneapolis, Minn.) was used as a positive control for induction of apoptosis.

[2] = system: H295R cells; assay: Caspase 3/7 Glo assay for apoptosis; format: cell-based; details: for induction of apoptosis (caspase 3/7 activity), single compound: H295R (wild type p53), 8, 16, 24 and 48 hours
Description: as §1

[3] = system: MDM2 protein; assay: Western blot of MDM2 protein after BI-2536; format: cell-based; details: H295R and SW-13; BI-2536 24 hours
Description: 6×10^5 SW-13 and 7.5×10^5 H295R cells were plated in 10 cm^2 dishes in 10 ml of media. […] Cells were lysed with RIPA buffer with protease and phosphatase inhibitors, and the resulting protein lysate quantitated by BCA (Pierce, Thermo Scientific, Pittsburgh, Pa.). Thirty micrograms of protein were loaded onto 4-12% Bis-Tris pre-cast gels (Invitrogen, Carlsbad, Calif.) and allowed to separate at 150V for 1 hour. The gels were then transferred onto PVDF membranes for 7 minutes using the iBLOT western transfer system (Invitrogen, Carlsbad, Calif.) at room temperature. […] The membranes were developed using the SuperSignal West Femto Chemiluminescent Substrate (Pierce, Thermo Scientific, Pittsburgh, Pa.) and were visualized and quantitated with the Bio Spectrum 500 Imaging System (UVP, Cambridge, UK).
The blots were processed as described above for the detection of β-Actin (AbCam, Cambridge, Mass.) in 5% blocking solution which was used as an internal loading control. […] The actin membranes were also detected using the SuperSignal West Femto Chemiluminescent Substrate (Pierce, Thermo Scientific, Pittsburgh, Pa.) and were visualized and quantitated with the Bio Spectrum 500 Imaging System (UVP, Cambridge, UK) and relative amounts of PLK-1, MDM2 and p53 protein are reported relative to β-Actin. […]

[4] = system: SW-13 cells; assay: In vitro drug dose-response, cell viability by CellTiter Glo; format: cell-based
Description: (§2) H295R cells were plated at a density of 1750 cells/well in 40 μl of medium and SW-13 cells were plated at 1250 cells/wells in 40 μl DMEM with 2% FBS in white 384-well plates and allowed to attach for 24 hours. […] Cell viability was normalized to cells alone and DMSO controls. […].
(§3) Dose response curves and IC50 values for cell survival in the presence of the drugs were calculated using Prism software (GraphPad) using the log(inhibitor) vs. response—4 parameter function which fits the following equation: Y=Bottom+(Top-Bottom)/[1+10̂(X−Log IC50)] where X is the logarithm of concentration and Y is the percent cell survival. Y starts at the top and goes to bottom with a sigmoid shape as X increases. All experiments were done at least three technical replicates and values are represented as averages with standard error.

[5] = system: H295R cells; assay: as above; format: cell-based
Description: as §2, §3

[6] = system: TP53 (p53) transcript; assay: RT-qPCR of p53 mRNA levels; format: cell-based; details: either of the two cell lines (H295R, SW-13)
Description: (§4) 6×10^5 SW-13 and 7.5×10^5 H295R cells were plated in 10 cm^2 dishes in 10 ml of media. […] Total RNA was extracted 24 hours later using the mirVana miRNA Isolation Kit (Ambion, Inc, Grand Island, N.Y.) as per the manufacturer's protocol.
(§5) Total RNA was reverse transcribed utilizing both random hexamer and oligo-dT primers and the RT^2 First Strand cDNA Synthesis Kit (SABiosciences, Valencia, Calif.). The resulting cDNA was amplified on the iQ5 Real-Time PCR Detection System (Bio-Rad Laboratories, Inc, Hercules, Calif.) using primer sets for TP53 (p53), CDKN1A (p21) and ACTB (β-actin) and RT^2 SYBR Green Master Mix (all from SABiosciences, Valencia, Calif.) and run according to manufacturer's instructions. Melting curve analysis was performed to evaluate primer set specificity. Fold difference relative to […], which was used as the reference gene, was calculated using the Pfaffl method taking into account reaction efficiencies.

[7] = system: CDKN1A (p21) transcript; assay: RT-qPCR of p21 mRNA levels; format: cell-based
Description: as §4, §5

[8] = system: BD140 lines; assay: Caspase 3/7 Glo assay for apoptosis; format: cell-based
Description: ACC cell lines SW-13 and H295R were obtained from ATCC and authenticated by STR analysis on Aug. 24, 2012. BD140 lines (A-C) represent distinct subclones established from the tumor of ACC140. BD167 was also established. They are positive for DHEAS expression, confirming adrenocortical origin. SW-13 and the […] were grown in DMEM supplemented with 10% FBS, 1% L-glutamine, 1% […] (ITS), and penicillin-streptomycin. BD140-A, BD140-B and BD167 were grown in RPMI supplemented with 10% FBS, 1% L-glutamine, 1% ITS, and penicillin-streptomycin. H295R was grown in DMEM:F12 supplemented with 2.5% NuSerum, 1% L-glutamine, 1% ITS, and penicillin-streptomycin. All cells lines were grown at 37° C. in a 5% CO2 atmosphere.
ACC cell lines were plated and 24 hours later, 0.5 μM, 1 μM, 2.5 μM, and 5 μM of doxorubicin was added to the cultures. The activity of caspases 3 and 7 was assessed using Caspase 3/7 Glo (Promega, Madison, Wis.) at 8, 24, and 48 hours after drug addition according to manufacturer's instructions. Data was normalized to cells alone, then to vehicle alone and expressed as a percentage of vehicle alone.

[9] = system: adrenocortical carcinoma; details: cited from earlier work

## CC[C@@H]1C(=O)N(C)c2cnc(Nc3ccc(C(=O)NC4CCN(C)CC4)cc3OC)nc2N1C1CCCC1 [BI-2536]
[1]; SW-13
  time of maximum induction of apoptosis: 48 h
[1]
  induction of apoptosis (caspase 3/7 activity), single compound: robust induction of apoptosis
[2]
  induction of apoptosis (caspase 3/7 activity), single compound: robust induction of apoptosis
[3]
  levels of the MDM2 protein: does not affect
[4]
  IC10 (cell viability): 0.0222 µM
[5]
  IC10 (cell viability): 0.00565 µM
[6]
  levels of p53 transcript: did not significantly affect
[7]; H295R, wild type p53
  transcription of CDKN1A (p21): general trend of increased transcription
[7]; SW-13, mutant p53
  amount of CDKN1A message: reduced

## COc1cccc2c1C(=O)c1c(O)c3c(c(O)c1C2=O)C[C@@](O)(C(=O)CO)C[C@@H]3O[C@H]1C[C@H](N)[C@H](O)[C@H](C)O1 [doxorubicin]
[1]; SW-13, 0.5-5 μM
  time to significant induction of caspase 3/7 activation following doxorubicin exposure: ≤ 8 h
[2]; H295R, 0.5-5 μM, 8, 24, 48 hours
  caspase 3/7 activation (apoptosis) following doxorubicin exposure: delayed
[8]; 0.5 μM and 1 μM
  induction of caspase 3/7 activity: not seen until 48 hours
[8]; 2.5 μM and 5 μM, by 24 hours
  induction of caspase 3/7 activity: moderate induction

## Clc1ccc(C(c2ccccc2Cl)C(Cl)Cl)cc1 (stereo not shown) [mitotane]
[9]; improved from 14 months
  survival of patients whose tumors respond: 50 months
[9]; mitotane as a single agent
  response rate: 23%
[9]; most patients, severe toxic side effects
  tolerability: poorly tolerated

## COc1ccc(C2=N[C@@H](c3ccc(Cl)cc3)[C@@H](c3ccc(Cl)cc3)N2C(=O)N2CCNC(=O)C2)c(OC(C)C)c1 [nutlin-3]
[1]
  induction of apoptosis (caspase 3/7 activity), single compound: small increase in apoptosis
[2]
  induction of apoptosis (caspase 3/7 activity), single compound: restored the apoptotic response
[4]
  cell viability (in words): decreased
[4]; CellTiter Glo, 96 hours, combination: BI-2536 kept constant at IC25, nutlin-3 serially diluted
  IC50: 19.8 µM
[5]
  cell viability (in words): decreased
[5]; CellTiter Glo, combination: BI-2536 kept constant at IC25, nutlin-3 serially diluted
  IC50: 12.8 µM
